Measurements published in patent US10138230B2, “Autotaxin inhibitors” (CANCER RESEARCH TECHNOLOGY LIMITED, priority 2015, dated 2018).
Where a name gives a salt, the structure may show the parent alone.

Each molecule was assayed against human recombinant ATX (Homo sapiens (Human), UniProt Q13822) (assay: Autotaxin (ATX) activity Quanta Red assay). Conditions: 15 μM Rac-1-Palmitoyl-glycero-3-phosphocholine, 2 hours room temperature, determined in duplicate.
Format: biochemical
Outline: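 Choline released from 15 μM LPC substrate by 0.8 μg/mL recombinant human ATX (pH 8.0 Tris, CaCl2, 4% DMSO, 2 h, RT) was detected by coupled Quanta Red fluorescence.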
In the case of `O=C(NC1CC(=O)N(c2ccc(CN3CCCCC3)cc2)C1)c1nnc(CCc2ccc(F)cc2)s1` (stereo not shown) [Compound F168, 5-[2-(4-fluorophenyl)ethyl]-N-[5-oxo-1-[4-(1-piperidylmethyl)phenyl]pyrrolidin-3-yl]-1,3,4-thiadiazole-2-carboxamide], the IC50 is reported as 17 nM.
`CC1(O)CCN(Cc2ccc(N3C[C@H](NC(=O)c4nnc(CCc5ccc(Cl)cc5)s4)CC3=O)cc2)CC1` [Compound F169, 5-[2-(4-chlorophenyl)ethyl]-N-[(3R)-1-[4-[(4-hydroxy-4-methyl-1-piperidyl)methyl]phenyl]-5-oxo-pyrrolidin-3-yl]-1,3,4-thiadiazole-2-carboxamide] gave an IC50 of 22 nM.
`CC(C)(O)CCNCc1ccc(N2C[C@H](NC(=O)c3nnc(CCc4ccc(Cl)cc4)s3)CC2=O)cc1` [Compound F170, 5-[2-(4-chlorophenyl)ethyl]-N-[(3R)-1-[4-[[(3-hydroxy-3-methyl-butyl)amino]methyl]phenyl]-5-oxo-pyrrolidin-3-yl]-1,3,4-thiadiazole-2-carboxamide hydrochloride] showed an IC50 of 58 nM.
Molecule `CN(CCC(C)(C)O)Cc1ccc(N2C[C@H](NC(=O)c3nnc(CCc4ccc(Cl)cc4)s3)CC2=O)cc1` [Compound F171, 5-[2-(4-chlorophenyl)ethyl]-N-[(3R)-1-[4-[[(3-hydroxy-3-methyl-butyl)-methyl-amino]methyl]phenyl]-5-oxo-pyrrolidin-3-yl]-1,3,4-thiadiazole-2-carboxamide] has an IC50 of 58 nM.
`O=C(NC1CC(=O)N(c2ccc(CN3CCCCC3)cc2)C1)c1nnc(CCc2ccccc2)s1` (stereo not shown) [Compound F172, N-[5-oxo-1-[4-(1-piperidylmethyl)phenyl]pyrrolidin-3-yl]-5-(2-phenylethyl)-1,3,4-thiadiazole-2-carboxamide] gave an IC50 of 76 nM.
`O=C(N[C@@H]1CC(=O)N(c2ccc(CN3CCCCC3)cc2)C1)c1cc(CCc2ccc(F)cc2)on1` [Compound F173, 5-[2-(4-fluorophenyl)ethyl]-N-[(3R)-5-oxo-1-[4-(1-piperidylmethyl)phenyl]pyrrolidin-3-yl]isoxazole-3-carboxamide] gave an IC50 of 24 nM.
`O=C(N[C@H]1CC(=O)N(c2ccc(CN3CCCCC3)cc2)C1)c1cc(CCc2ccc(F)cc2)on1` [Compound F174, 5-[2-(4-fluorophenyl)ethyl]-N-[(3S)-5-oxo-1-[4-(1-piperidylmethyl)phenyl]pyrrolidin-3-yl]isoxazole-3-carboxamide] was tested, and the IC50 was 33 nM.
`O=C(NC1CC(=O)N(c2ccc(CN3CCCCC3)cc2)C1)c1cc(CCc2ccccc2)on1` (stereo not shown) [Compound F175, N-[5-oxo-1-[4-(1-piperidylmethyl)phenyl]pyrrolidin-3-yl]-5-(2-phenylethyl)isoxazole-3-carboxamide] showed an IC50 of 47 nM.
For `O=C(Nc1nnc(CCc2ccccc2)s1)C1CC(=O)N(c2ccc(CN3CCOCC3)cc2)C1` (stereo not shown) [Compound F176, 1-[4-(morpholinomethyl)phenyl]-5-oxo-N-[5-(2-phenylethyl)-1,3,4-thiadiazol-2-yl]pyrrolidine-3-carboxamide], the IC50 was 11 nM.
`CN(C)Cc1ccc(N2CC(C(=O)Nc3nnc(CCc4ccc(Cl)cc4)s3)CC2=O)cc1` (stereo not shown) [Compound F177, N-[5-[2-(4-chlorophenyl)ethyl]-1,3,4-thiadiazol-2-yl]-1-[4-[(dimethylamino)methyl]phenyl]-5-oxo-pyrrolidine-3-carboxamide] gave an IC50 of 29 nM.
`O=C(Nc1ccc(CCc2ccc(F)cc2)nn1)[C@H]1CC(=O)N(c2ccc(CN3CCCCC3)cc2)C1` [Compound F178, (3S)-N-[6-[2-(4-fluorophenyl)ethyl]pyridazin-3-yl]-5-oxo-1-[4-(1-piperidylmethyl)phenyl] pyrrolidine-3-carboxamide] showed an IC50 of 30 nM.
`O=C(Nc1cc(CCc2ccccc2)[nH]n1)C1CC(=O)N(c2ccc(CN3CCOCC3)cc2)C1` (stereo not shown) [Compound F179, 1-[4-(morpholinomethyl)phenyl]-5-oxo-N-[5-(2-phenylethyl)-1H-pyrazol-3-yl]pyrrolidine-3-carboxamide] showed an IC50 of 38 nM.
`O=C(Nc1ccc(CCc2ccc(F)cc2)nn1)[C@H]1CC(=O)N(c2ccc(CN3CCOCC3)cc2)C1` [Compound F180, (3S)—N-[6-[2-(4-fluorophenyl)ethyl]pyridazin-3-yl]-1-[4-(morpholinomethyl)phenyl]-5-oxo-pyrrolidine-3-carboxamide hydrochloride] was tested, and the IC50 was 11 nM.
In the case of `CCC(C)CCc1nnc(NC(=O)C2CC(=O)N(c3ccc(CN4CCCCC4)cc3)C2)s1` (stereo not shown) [Compound F182, 5-oxo-1-(4-piperidin-1-ylmethyl-phenyl)-pyrrolidine-3-carboxylic acid [5-(3-methyl-pentyl)-[1,3,4]thiadiazol-2-yl]-amide; hydrochloride], the IC50 is reported as 21 nM.
Molecule `O=C1CC(NCc2nnc(CCc3ccc(Cl)cc3)s2)CN1c1ccc(CN2CCOCC2)cc1` (stereo not shown) [Compound F183, 4-({5-[2-(4-Chloro-phenyl)-ethyl]-[1,3,4]thiadiazol-2-ylmethyl}-amino)-1-(4-morpholin-4-ylmethyl-phenyl)-pyrrolidin-2-one; hydrochloride] has an IC50 of 23 nM.
`CN1CCC(C(=O)NCc2ccc(N3CC(C(=O)Nc4nnc(CCc5ccc(Cl)cc5)s4)CC3=O)cc2)CC1` (stereo not shown) [Compound F184, 1-Methyl-piperidine-4-carboxylic acid 4-(4-{5-[2-(4-chloro-phenyl)-ethyl]-[1,3,4]thiadiazol-2-ylcarbamoyl}-2-oxo-pyrrolidin-1-yl)-benzylamide] showed an IC50 of 45 nM.
`O=C(Nc1nnc(CCC2CCCO2)s1)[C@H]1CC(=O)N(c2ccc(CN3CCOCC3)cc2)C1` (stereo partly drawn) [Compound F186, (3S)-1-[4-(morpholinomethyl)phenyl]-5-oxo-N-[5-(2-tetrahydrofuran-2-ylethyl)-1,3,4-thiadiazol-2-yl]pyrrolidine-3-carboxamide] gave an IC50 of 134 nM.
Work on `O=C(Nc1ncc(COC2CCCCC2)s1)C1CC(=O)N(c2ccc(CN3CCOCC3)cc2)C1` (stereo not shown) [Compound F187, N-[5-(cyclohexoxymethyl)thiazol-2-yl]-1-[4-(morpholinomethyl)phenyl]-5-oxo-pyrrolidine-3-carboxamide] yielded an IC50 of 163 nM.
`O=C(Nc1nnc(CCC2CCOCC2)s1)C1CC(=O)N(c2ccc(CN3CCCCC3)cc2)C1` (stereo not shown) [Compound F189, 5-oxo-1-[4-(1-piperidylmethyl)phenyl]-N-[5-(2-tetrahydropyran-4-ylethyl)-1,3,4-thiadiazol-2-yl]pyrrolidine-3-carboxamide] gave an IC50 of 487 nM.
In the case of `O=C(Nc1nnc(CCC2CCOCC2)s1)[C@H]1CC(=O)N(c2ccc(CN3CCCCC3)cc2)C1` [Compound F190, (3S)-5-oxo-1-[4-(1-piperidylmethyl)phenyl]-N-[5-(2-tetrahydropyran-4-ylethyl)-1,3,4-thiadiazol-2-yl]pyrrolidine-3-carboxamide], the IC50 is reported as 526 nM.
With `O=C(Nc1nnc(CCC2CCCO2)s1)[C@H]1CC(=O)N(c2ccc(CN3CCCCC3)cc2)C1` (stereo partly drawn) [Compound F191, (3S)-5-oxo-1-[4-(1-piperidylmethyl)phenyl]-N-[5-(2-tetrahydrofuran-2-ylethyl)-1,3,4-thiadiazol-2-yl]pyrrolidine-3-carboxamide] the IC50 was 615 nM.
Work on `Cn1nc(NC(=O)C2CC(=O)N(c3ccc(CN4CCOCC4)cc3)C2)cc1CCc1ccc(Cl)cc1` (stereo not shown) [Compound F192, N-[5-[2-(4-chlorophenyl)ethyl]-1-methyl-pyrazol-3-yl]-1-[4-(morpholinomethyl)phenyl]-5-oxo-pyrrolidine-3-carboxamide] yielded an IC50 of 773 nM.
`O=C(NC1CC(=O)N(c2ccc(CN3CCCCC3)cc2)C1)c1nnc(CCc2ccccc2)o1` (stereo not shown) [Compound F194, N-[5-oxo-1-[4-(1-piperidylmethyl)phenyl]pyrrolidin-3-yl]-5-(2-phenylethyl)-1,3,4-oxadiazole-2-carboxamide] was tested, and the IC50 was 649 nM.
For `O=C(NC1CC(=O)N(c2ccc(CN3CCCCC3)cc2)C1)c1nnc(CCc2ccco2)s1` (stereo not shown) [Compound F195, 5-[2-(2-furyl)ethyl]-N-[5-oxo-1-[4-(1-piperidylmethyl)phenyl]pyrrolidin-3-yl]-1,3,4-thiadiazole-2-carboxamide], the IC50 was 766 nM.
Molecule `O=C(NC1CC(=O)N(c2ccc(CN3CCCCC3)cc2)C1)c1nnc(NCc2ccc(Cl)cc2)s1` (stereo not shown) [Compound F196, 5-[(4-chlorophenyl)methyl-amino]-N-[5-oxo-1-[4-(1-piperidylmethyl)phenyl]pyrrolidin-3-yl]-1,3,4-thiadiazole-2-carboxamide] has an IC50 of 103 nM.
With `O=C(NC1CC(=O)N(c2ccc(CN3CCCCC3)cc2)C1)c1ncc(CCc2ccccc2)s1` (stereo not shown) [Compound F197, N-[5-oxo-1-[4-(1-piperidylmethyl)phenyl]pyrrolidin-3-yl]-5-(2-phenylethyl)thiazole-2-carboxamide] the IC50 was 465 nM.
Molecule `O=C(NC1CC(=O)N(c2ccc(CN3CCCCC3)cc2)C1)c1cc(CCc2ccccc2)no1` (stereo not shown) [Compound F198, N-[5-oxo-1-[4-(1-piperidylmethyl)phenyl]pyrrolidin-3-yl]-3-(2-phenylethyl)isoxazole-5-carboxamide] has an IC50 of 989 nM.
`COc1ccc(CCc2cc(NC(=O)C3CC(=O)N(c4ccc(CN5CCOCC5)cc4)C3)on2)cc1` (stereo not shown) [Compound F199, N-[3-[2-(4-methoxyphenyl)ethyl]isoxazol-5-yl]-1-[4-(morpholinomethyl)phenyl]-5-oxo-pyrrolidine-3-carboxamide] was tested, and the IC50 was 293 nM.
With `O=C(Nc1cc(CCc2ccccc2)no1)C1CC(=O)N(c2ccc(CN3CCOCC3)cc2)C1` (stereo not shown) [Compound F200, 1-[4-(morpholinomethyl)phenyl]-5-oxo-N-[3-(2-phenylethyl)isoxazol-5-yl]pyrrolidine-3-carboxamide] the IC50 was 760 nM.
For `O=C(Nc1cnc(CCc2ccccc2)s1)C1CC(=O)N(c2ccc(CN3CCOCC3)cc2)C1` (stereo not shown) [Compound F201, 1-[4-(morpholinomethyl)phenyl]-5-oxo-N-[2-(2-phenylethyl)thiazol-5-yl]pyrrolidine-3-carboxamide], the IC50 was 1070 nM.
`NCc1ccc(N2CC(C(=O)Nc3nnc(CCc4ccc(Cl)cc4)s3)CC2=O)cc1` (stereo not shown) [Compound F203, 1-(4-aminomethyl-phenyl)-5-oxo-pyrrolidine-3-carboxylic acid {5-[2-(4-chloro-phenyl)-ethyl]-[1,3,4]thiadiazol-2-yl}-amide] gave an IC50 of 385 nM.
